From patent US6046238A, “Method for treating or preventing the spread of acne vulgaris” (TriStrata, Inc., priority 1999, dated 2000)
Entries after “also recorded” stand apart in the source; their conditions may differ.

Key:
[1] = topical treatment of nail infections; type: in vivo, human; conditions: non-synergistic composition, twice daily
From the text: The participating subjects in the present study were instructed to apply twice daily the composition containing phenyl 2-acetoxyethanoic acid or diphenyl 2-acetoxyethanoic acid with or without clotrimazole as an additional antimicrobial agent.
In order to determine the antimicrobial effect of an aryl 2-acetoxyethanoicacid, a standard test method of Minimum Inhibitory Concentration (MIC) against the growth of 10 bacteria was used. To determine a prophylactic effect against the development of, as well as a topical effect in the treatment of, body foul door, eleven human subjects participated in this study. […] Scientific and test results are overviewed as follows.

[2] = topical treatment of folliculitis and perifolliculitis; type: in vivo, human; conditions: 0.9%, twice daily; nine patients
Description: Nine patients having various degrees of folliculitis and perifolliculitis participated in this study. A test composition containing 0.9% phenyl 2-acetoxyethanoic acid or diphenyl 2-acetoxyethanoic acid was prepared by dissolving 0.9 g compound in 79.1 ml 2-propanol, 15 ml butane-1,3-diol and 5 ml nonoxynol-6. The composition was packaged in one-ounce bottles. The patients were instructed to apply the test composition twice daily on the infected skin lesions and involved areas. Topical applications were continued up to 8 weeks.

[3] = axillary antiodor effectiveness (treatment); type: in vivo, human; conditions: 0.5%
From the text: In another study the subjects were instructed not to take a shower in the morning. After the foul odor developed in both axillae, the subjects were instructed to apply the test composition containing 0.5% phenyl 2-acetoxyethanoic acid or diphenyl 2-acetoxyethanoic acid on the left underarm area and the control vehicle on the right underarm area. Topical applications were made once daily for several days.
Usually the left underarm ceased emanating any detectable foul odor after 1 day of topical use. The subjects were instructed at this time to apply the test composition containing 0.5% phenyl 2-acetoxyethanoic acid or diphenyl 2-acetoxyethanoic acid on the right underarm area also. Topical applications were made once daily for several days. The right axilla ceased to emanate any detectable foul odor after 1 to 2 days of topical use.

[4] = prophylactic effect in preventing the development of axillary foul odor; type: in vivo, human; conditions: Example 5; 0.5% solution, topical; one person; up to 24 hours
Description: A typical test for prophylactic effect in preventing the development of axillary foul odor was carried out as follows. A test composition was prepared by dissolving 0.5 g of phenyl 2-acetoxyethanoic acid or diphenyl 2-acetoxyethanoic acid in 70 ml of ethanol and 30 ml of propylene glycol. The control vehicle was prepared by mixing 70 ml of ethanol and 30 ml of propylene glycol. A human subject was instructed to take a shower in the morning using ordinary soap to clean the body surfaces. After the skin was dried, the test composition was topically applied to the left underarm area only. The vehicle control was topically applied to the right underarm area. Both underarm areas were monitored by the subject and at least one other person approximately every 8 hours to determine whether the test composition had any prophylactic effect in preventing the development of underarm foul odor in the left axilla as compared to the vehicle alone on the right control armpit.
Presence or substantial absence of foul odor, detected by smell, was adopted as the criteria for ineffectiveness or effectiveness of the test composition.
A total of seven subjects (four females; three males) participated in several studies. Most of these subjects could not use existing commercial products of antiperspirants or deodorants because of severe irritation after topical application. […]

[5] = reversal of corticosteroid unresponsiveness in psoriasis; type: in vivo, human; conditions: added once daily to corticosteroid twice daily; seven patients
Description: To determine the therapeutic responsive effect of an aryl 2-acetoxyethanoicacid against psoriasis seven patient participated in this study. A test composition was prepared by dissolving 1 g phenyl 2-acetoxyethanoic acid or diphenyl 2-acetoxyethanoic acid in 2 ml ethanol. The solution thus obtained was mixed with 60 g petrolatum and 37 g mineral oil. The anhydrous ointment thus formulated was packaged in one-ounce jars.
When the drug unresponsiveness to a corticosteroid occurred, the participating patients were instructed to apply in addition the test composition once daily to the lesions on the left side of the body only. Topical applications of the corticosteroid were continued twice daily to both sides of the body. […] While psoriatic lesions on the right side of the body remained unresponsive to the topical corticosteroid, the lesions on the left side started to clear after 3 to 4 weeks of additional topical application with the composition containing an aryl 2-acetoxyethanoic acid.
At this time the patients were instructed to shift the additional topical application to the lesions on the right side instead of the left side of the body. The psoriatic lesions on the right side of the body began to clear after 3 to 4 weeks of additional topical application with the composition containing aryl 2-acetoxyethanoic acid.

[6] = treatment of oral infections; type: in vivo, human; conditions: 2% composition diluted to 0.1%; oral rinse twice daily
Description: Compositions for treatment of oral infections may contain an aryl 2-acetoxyethanoic acid as the only active ingredient. In this case a phenyl 2-acetoxyethanoic acid or diphenyl 2-acetoxyethanoic acid 2% composition was formulated by dissolving the active ingredient 2 g in ethanol 78 ml and propylene glycol 20 ml. Before use, this composition was diluted to 0.1% with water by mixing one part of the composition with 19 parts of water. The treatment involves oral rinse, wash and gargle by keeping the diluted composition inside the oral cavity for a few minutes, and then spit out. Such procedure may be repeated twice daily for several days until the infection is eradicated usually within 5-7 days.

[7] = caused by microbial infections including P. acnes; salicylic acid alone; cited from earlier work

| SMILES | disappearance of nail infections [1] | deeper lesions of papules [2] | superficial folliculitis and perifolliculitis lesions [2] | overall axillary antiodor effectiveness ([3]; topical) | left axilla on continued use ([3]; continued, once daily for several days) | time after which left underarm usually ceased emanating any detectable foul odor ([3]; no-shower study, left side) | intensity of foul odor, left underarm ([3]; no-shower study, once daily) | time after which left underarm ceased emanating any detectable foul odor ([3]; Example 6, once daily, one person, left side) | time after which right axilla ceased to emanate any detectable foul odor ([3]; Example 6, right side, formerly vehicle) | prevention of axillary foul odor (left underarm) [4] | onset of improvement of psoriatic lesions, left side [5] | time within which oral infection is usually eradicated [6] | effect against acne lesions associated with whiteheads [7] |
| --- | --- | --- | --- | --- | --- | --- | --- | --- | --- | --- | --- | --- | --- |
| CC(=O)OC(C(=O)O)(c1ccccc1)c1ccccc1 [diphenyl 2-acetoxyethanoic acid] | usually disappeared within one to several months | eradicated or substantially improved after 4 to 8 weeks of topical applications | eradicated or substantially improved after a few days of topical applications | topically effective in eradicating the axillary foul odor | continued to maintain the condition free of any offensive foul odor | 1 days | diminished in intensity of foul odor after one to two days of topical application | 1 days | 1 days | did not produce any detectable odor, even after 24 hours; also recorded: substantially effective in preventing the development of axillary foul odor | began to improve after one week | 5 to 7 days |  |
| O=C(O)c1ccccc1O [salicylic acid] |  |  |  |  |  |  |  |  |  |  |  |  | not therapeutically effective against acne lesions associated with whiteheads |
